Reference: US20160326142A1, “PYRAZOLE CARBOXAMIDE COMPOUNDS, COMPOSITIONS AND METHODS OF USE” (Genentech, Inc., priority 2012, published 2016)

The compounds below were run against T1, ITK (Homo sapiens, UniProt Q08881) (assay: ITK enzyme assay (Caliper or LCMS peptide phosphorylation)). Conditions: purified ITK (Invitrogen PV3875), 20 μM ATP, Ki by Morrison's quadratic equation.
T1 construct: purchased Invitrogen PV3875
T1 sequence (Q08881 1-620): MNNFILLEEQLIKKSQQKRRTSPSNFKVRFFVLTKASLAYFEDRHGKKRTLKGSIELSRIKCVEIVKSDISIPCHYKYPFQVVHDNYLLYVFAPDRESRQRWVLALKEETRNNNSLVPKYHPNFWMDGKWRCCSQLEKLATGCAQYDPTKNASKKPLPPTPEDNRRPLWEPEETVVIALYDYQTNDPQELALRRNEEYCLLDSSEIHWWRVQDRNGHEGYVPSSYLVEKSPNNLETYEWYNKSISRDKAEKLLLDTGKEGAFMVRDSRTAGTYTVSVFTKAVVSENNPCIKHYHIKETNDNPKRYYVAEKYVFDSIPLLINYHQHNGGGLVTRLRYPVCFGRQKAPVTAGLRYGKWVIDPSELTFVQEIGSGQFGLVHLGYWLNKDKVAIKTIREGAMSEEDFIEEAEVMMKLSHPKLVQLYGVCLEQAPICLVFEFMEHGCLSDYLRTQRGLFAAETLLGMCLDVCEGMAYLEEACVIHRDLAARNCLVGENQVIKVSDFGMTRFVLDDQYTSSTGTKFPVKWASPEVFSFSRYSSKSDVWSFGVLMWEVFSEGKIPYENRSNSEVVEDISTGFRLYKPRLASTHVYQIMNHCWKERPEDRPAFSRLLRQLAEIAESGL
Type: biochemical
Outline: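 Ki values come from Morrison quadratic fits of activity versus inhibitor concentration, adjusted for ATP-competitive inhibition against ATP/Km,app. Substrate and phosphopeptide from purified ITK reactions were resolved either microfluidically (Caliper, EDTA stop) or by LC-MS MRM (TCA stop).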

Compound	Ki
CC1(C)CCc2c(C(=O)Nc3cnn(C(c4cccnc4)C4CCCCS4(=O)=O)c3)n[nH]c2C1 (single isomer, unassigned) [Example 144a, N-(1-((1,1-dioxidotetrahydro-2H-thiopyran-2-yl)(pyridin-3-yl)methyl)-1H-pyrazol-4-yl)-6,6-dimethyl-4,5,6,7-tetrahydro-1H-indazole-3-carboxamide]	0.1 nM
CC1(C)CCc2c(C(=O)Nc3cnn(C(c4cccnc4)C4CCCCS4(=O)=O)c3)n[nH]c2C1 (single isomer, unassigned) [Example 144b, N-(1-((1,1-dioxidotetrahydro-2H-thiopyran-2-yl)(pyridin-3-yl)methyl)-1H-pyrazol-4-yl)-6,6-dimethyl-4,5,6,7-tetrahydro-1H-indazole-3-carboxamide]	3 nM
CC1(C)CCc2c(C(=O)Nc3cnn(C(c4cccnc4)C4CCCCS4(=O)=O)c3)n[nH]c2C1 (single isomer, unassigned) [Example 144c, N-(1-((1,1-dioxidotetrahydro-2H-thiopyran-2-yl)(pyridin-3-yl)methyl)-1H-pyrazol-4-yl)-6,6-dimethyl-4,5,6,7-tetrahydro-1H-indazole-3-carboxamide]	0.1 nM
CC1(C)CCc2c(C(=O)Nc3cnn(C(c4cccnc4)C4CCCCS4(=O)=O)c3)n[nH]c2C1 (single isomer, unassigned) [Example 144d, N-(1-((1,1-dioxidotetrahydro-2H-thiopyran-2-yl)(pyridin-3-yl)methyl)-1H-pyrazol-4-yl)-6,6-dimethyl-4,5,6,7-tetrahydro-1H-indazole-3-carboxamide]	2 nM
CC12Cc3[nH]nc(C(=O)Nc4cnn(C(c5cccnc5)C5CC[S+]([O-])CC5)c4)c3CC1C2 (single isomer, unassigned) [Example 146a, 5a-methyl-N-(1-((1-oxidotetrahydro-2H-thiopyran-4-yl)(pyridin-3-yl)methyl)-1H-pyrazol-4-yl)-1,4,4a,5,5a,6-hexahydrocyclopropa[f]indazole-3-carboxamide]	0.1 nM
CC12Cc3[nH]nc(C(=O)Nc4cnn(C(c5cccnc5)C5CC[S+]([O-])CC5)c4)c3CC1C2 (single isomer, unassigned) [Example 146b, 5a-methyl-N-(1-((1-oxidotetrahydro-2H-thiopyran-4-yl)(pyridin-3-yl)methyl)-1H-pyrazol-4-yl)-1,4,4a,5,5a,6-hexahydrocyclopropa[f]indazole-3-carboxamide]	2 nM
CC12Cc3[nH]nc(C(=O)Nc4cnn(C(c5cccnc5)C5CC[S+]([O-])CC5)c4)c3CC1C2 (single isomer, unassigned) [Example 146c, 5a-methyl-N-(1-((1-oxidotetrahydro-2H-thiopyran-4-yl)(pyridin-3-yl)methyl)-1H-pyrazol-4-yl)-1,4,4a,5,5a,6-hexahydrocyclopropa[f]indazole-3-carboxamide]	0.1 nM
CC12Cc3[nH]nc(C(=O)Nc4cnn(C(c5cccnc5)C5CC[S+]([O-])CC5)c4)c3CC1C2 (single isomer, unassigned) [Example 146d, 5a-methyl-N-(1-((1-oxidotetrahydro-2H-thiopyran-4-yl)(pyridin-3-yl)methyl)-1H-pyrazol-4-yl)-1,4,4a,5,5a,6-hexahydrocyclopropa[f]indazole-3-carboxamide]	2 nM

Further lines, results first:

Ki	Compound
0.6 nM	CC1(C)CCc2c(C(=O)Nc3cnn(C(c4cccnc4)C4CC[S+]([O-])CC4)c3)n[nH]c2C1 (single isomer, unassigned) [Example 147a, 6,6-dimethyl-N-(1-((1-oxidotetrahydro-2H-thiopyran-4-yl)(pyridin-3-yl)methyl)-1H-pyrazol-4-yl)-4,5,6,7-tetrahydro-1H-indazole-3-carboxamide]
4 nM	CC1(C)CCc2c(C(=O)Nc3cnn(C(c4cccnc4)C4CC[S+]([O-])CC4)c3)n[nH]c2C1 (single isomer, unassigned) [Example 147b, 6,6-dimethyl-N-(1-((1-oxidotetrahydro-2H-thiopyran-4-yl)(pyridin-3-yl)methyl)-1H-pyrazol-4-yl)-4,5,6,7-tetrahydro-1H-indazole-3-carboxamide]
7 nM	CC1(C)CCc2c(C(=O)Nc3cnn(C(c4cccnc4)C4CC[S+]([O-])CC4)c3)n[nH]c2C1 (single isomer, unassigned) [Example 147c, 6,6-dimethyl-N-(1-((1-oxidotetrahydro-2H-thiopyran-4-yl)(pyridin-3-yl)methyl)-1H-pyrazol-4-yl)-4,5,6,7-tetrahydro-1H-indazole-3-carboxamide]
0.6 nM	CC1(C)CCc2c(C(=O)Nc3cnn(C(c4cccnc4)C4CC[S+]([O-])CC4)c3)n[nH]c2C1 (single isomer, unassigned) [Example 147d, 6,6-dimethyl-N-(1-((1-oxidotetrahydro-2H-thiopyran-4-yl)(pyridin-3-yl)methyl)-1H-pyrazol-4-yl)-4,5,6,7-tetrahydro-1H-indazole-3-carboxamide]
> 400 nM	O=C1CCC2(CCc3c(C(=O)Nc4cnn(Cc5ccccc5)c4)n[nH]c3C2)N1 (single isomer, unassigned) [Example 148a, N-(1-benzyl-1H-pyrazol-4-yl)-5′-oxo-1,4,5,7-tetrahydrospiro[indazole-6,2′-pyrrolidine]-3-carboxamide]
> 400 nM	O=C1CCC2(CCc3c(C(=O)Nc4cnn(Cc5ccccc5)c4)n[nH]c3C2)N1 (single isomer, unassigned) [Example 148b, N-(1-benzyl-1H-pyrazol-4-yl)-5′-oxo-1,4,5,7-tetrahydrospiro[indazole-6,2′-pyrrolidine]-3-carboxamide]
> 400 nM	CC1(N2CCOCC2)CCc2c(C(=O)Nc3cnn(Cc4ccccc4)c3)n[nH]c2C1 (single isomer, unassigned) [Example 149a, N-(1-benzyl-1H-pyrazol-4-yl)-6-methyl-6-morpholino-4,5,6,7-tetrahydro-1H-indazole-3-carboxamide]
> 400 nM	CC1(N2CCOCC2)CCc2c(C(=O)Nc3cnn(Cc4ccccc4)c3)n[nH]c2C1 (single isomer, unassigned) [Example 149b, N-(1-benzyl-1H-pyrazol-4-yl)-6-methyl-6-morpholino-4,5,6,7-tetrahydro-1H-indazole-3-carboxamide]
130 nM	CC12Cc3[nH]nc(C(=O)Nc4cnn(Cc5ccccc5)c4)c3C1C2 (single isomer, unassigned) [Example 150a, N-(1-benzyl-1H-pyrazol-4-yl)-4a-methyl-3b,4,4a,5-tetrahydro-1H-cyclopropa[3,4]cyclopent a[1,2-c]pyrazole-3-carboxamide]
32 nM	CC12Cc3[nH]nc(C(=O)Nc4cnn(Cc5ccccc5)c4)c3C1C2 (single isomer, unassigned) [Example 150b, N-(1-benzyl-1H-pyrazol-4-yl)-4a-methyl-3b,4,4a,5-tetrahydro-1H-cyclopropa[3,4]cyclopent a[1,2-c]pyrazole-3-carboxamide]
16 nM	CC12Cc3c(C(=O)Nc4cnn(Cc5ccccc5)c4)n[nH]c3C1C2 (single isomer, unassigned) [Example 151a, N-(1-benzyl-1H-pyrazol-4-yl)-4a-methyl-4,4a,5,5a-tetrahydro-1H-cyclopropa[4,5]cyclopent a[1,2-c]pyrazole-3-carboxamide]
